GI50 and TGI data for 11 compounds are collected here from PubChem BioAssay (NCI).

Broadly, the GI50 is the concentration at which growth is held to half of that of the control. A word on the TGI: it is the concentration giving total growth inhibition. High values mean less potent growth arrest, low ones more potent growth arrest.

Common to all, as to experiment: DTP human tumour cell line panel, 48 h
The test system of assay [1] is CAKI-1 renal.
Assay [2] relates to HL-60(TB) leukemia.
The subject of assay [3] is HT29 colon.
The test system of assay [4] is NCI-H23 lung.
The test system of assay [5] is NCI-H522 lung.
Assay [6] concerns OVCAR-3 ovarian.
Assay [7] deals with SN12C renal.
Assay [8] deals with SNB-75 CNS.
Assay [9] deals with UACC-62 melanoma.
The subject of assay [10] is TK-10 renal.

Each structure is given as a SMILES string.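 Cultured in 96-well plates, cells were exposed to test compound for 48 hours across five concentrations. GI50 = concentration required for 50% inhibition of growth. TGI denotes the concentration required for complete inhibition of growth.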

For the compound `CCCN1CCN(c2ccc3nc(-c4ccc5nc(-c6cc(OC)ccc6OC)[nH]c5c4)[nH]c3c2)CC1`, the GI50 in assay [1] is 15.9 µM; in assay [2], 3.12 µM; in assay [3] it was 1.8 µM; in assay [4], 1.93 µM; in assay [5] it was 1.74 µM; in assay [6] it was 1.84 µM. Also, the results for the GI50 in assay [7], in assay [8] and in assay [9] were 16.3 µM, 12.8 µM and 19 µM, respectively. Moreover, the TGI stood at 30.7 µM in [1]; 8.91 µM in assay [2]; 3.46 µM in assay [3]; 3.85 µM in assay [4]; 3.68 µM in [5]; 3.39 µM in assay [6]. Further, the TGI in assay [7] amounted to 32.8 µM; in assay [8], 26.2 µM; in assay [9] it was 34.7 µM.

`CCc1nc(N)nc(C(=O)NCCNC(=O)c2nc(N)nc(CC)c2C)c1C`: the TGI in assay [1], in [2], in assay [3], in [4], in assay [6] and in assay [7] was greater than 100 µM throughout. In addition, the TGI in assay [8], in assay [10] and in [9] was greater than 100 µM each time.

`O=CN1N=C(c2ccc(Cl)cc2)CC1c1cccc(Nc2ccnc3cc(Cl)ccc23)c1` (configuration not stated): the GI50 in assay [2] is 1.27 µM; in [3] it was 1.28 µM; in assay [4], 1.07 µM; in assay [5] it was 1.12 µM; in [6], 1.1 µM; in assay [7], 3.99 µM. Also, the figures for the GI50 in assay [8], in assay [10] and in assay [9] were 1.7 µM, 2.34 µM and 1.14 µM, respectively. Moreover, the TGI in [2] is 4.49 µM; in assay [3], 7.61 µM; in assay [4], greater than 100 µM; in [5] it was 11.9 µM; in assay [6] it was 14.5 µM; in assay [7], greater than 100 µM. For the same compound, the values for the TGI in assay [8], in assay [10] and in [9] were greater than 100 µM, 21.1 µM and 19.6 µM, respectively.

`CC/C(=C(/CC)c1ccc(O)cc1)c1ccc([O-])cc1.CC/C(=C(/CC)c1ccc(O)cc1)c1ccc([O-])cc1.O=C([CH-]C(=O)c1ccccc1)c1ccccc1.O=C([CH-]C(=O)c1ccccc1)c1ccccc1.[Ti+4]`: the GI50 in assay [1] was 16.3 µM; in assay [3] it was 18.1 µM; in assay [6], 27.7 µM; in [7], 14 µM; in [10], 30.2 µM; in assay [9], 6.61 µM. Moreover, the TGI in assay [1] is 61 µM; in [3], 32 µM; in assay [6], greater than 100 µM; in assay [7], 26.9 µM; in [10] it was 76.9 µM; in assay [9], 25.5 µM.

With `Cc1nc2cc(N)c(F)cc2[nH]1`, the TGI in assay [1], in [2], in assay [3], in [4], in [5] and in assay [7] was greater than 100 µM throughout. For the same compound, the TGI in [10] and in [9] was greater than 100 µM each time.

On to `O=C([O][Hg][CH2]C1COCC([CH2][Hg][O]C(=O)c2ccccc2)O1)c1ccccc1` (configuration not stated), for which the GI50 in assay [1] is 1.61 µM; in assay [2] it was 3.84 µM; in assay [4] it was 16.1 µM; in assay [6] it was 1.58 µM; in assay [7], 7.68 µM; in assay [8] it was 15.6 µM. The GI50 is 6.33 µM in [10] and 16.4 µM in assay [9]. In addition, the TGI in [1] amounted to 3.21 µM; in assay [2], 13.9 µM; in [4], 36.8 µM; in assay [6] it was 2.93 µM; in assay [7], 32.2 µM; in [8], 29.3 µM. In addition, the TGI in assay [10] was found to be 31.5 µM; in assay [9] it was 32.4 µM.

Take `Cc1cc(N2CCCC2)nc(NC2CCCC(Nc3ccnc4cc(Cl)ccc34)C2)n1` (configuration not stated): the GI50 is 1.59 µM in assay [4]; 1.58 µM in assay [5]; 1.67 µM in assay [6]; 2.55 µM in [10]; 1.92 µM in [9]. Also, the TGI in assay [4] was found to be 4.14 µM; in assay [5] it was 3.21 µM; in [6], 4.21 µM; in [10], 4.56 µM; in assay [9] it was 3.57 µM.

For `O=C1NC2CCC(C2)C1c1ccccc1` (configuration not stated), the TGI in [2], in assay [3], in assay [4], in assay [6], in [7] and in assay [8] was greater than 100 µM each time. The TGI in [10] and in assay [9] was greater than 100 µM throughout.

As to `NC(=S)N/N=C(\C(=O)Nc1cccc([N+](=O)[O-])c1)c1nc2ccc([N+](=O)[O-])cc2[nH]c1=O`, the TGI in [2] was greater than 100 µM; in [3], greater than 100 µM; in assay [4], greater than 100 µM; in assay [5] it was 53 µM; in assay [8] it was greater than 100 µM; in assay [10], greater than 100 µM. This compound also showed a TGI in assay [9] greater than 100 µM.

On to `Cc1cc(C)nc(NS(=O)(=O)c2ccc(Nc3c4ccc(Cl)cc4nc4c(C(=O)Nc5ccc(S(=O)(=O)N=C(N)N)cc5)cccc34)cc2)n1`, for which the TGI in assay [3], in assay [4], in assay [5], in assay [6], in [7] and in assay [8] was greater than 100 µM each time. The TGI in assay [10] and in [9] was greater than 100 µM each time.

In the case of `COc1ccc2c(c1)OC1=C(C(=O)OC1)C2c1cc(OC)c(OC)c(OC)c1` (configuration not stated), the GI50 was 0.256 µM in [2]; 0.345 µM in assay [3]; 0.609 µM in assay [4]; 0.273 µM in assay [5]; 0.313 µM in [6]; 0.806 µM in assay [7]. Further, the GI50 in assay [8] is 0.295 µM; in assay [10], greater than 67.7 µM; in [9] it was 0.55 µM. Moreover, the TGI in [2] is 0.673 µM; in assay [3] it was greater than 100 µM; in [4], greater than 100 µM; in assay [5] it was 2.02 µM; in assay [6], 1.14 µM; in assay [7], greater than 100 µM. Also, the TGI in [8], in assay [10] and in assay [9] was greater than 100 µM throughout.
